Assay results taken from the NIST ThermoML archive (doi:10.1016/j.jct.2007.01.010).

Assays:
[1] = xn = mol fraction of the nth substance listed; conditions: 101 kPa, Liquid
[2] = 101 kPa, Liquid

CCOC(C)(C)C [2-ethoxy-2-methylpropane] + CCOCCO
viscosity [mPa·s], [1]
Conditions | 293.15 K | 298.15 K | 303.15 K
x1 = 0.05 | 1.943 | 1.691 | 1.515
x1 = 0.1001 | 1.766 | 1.547 | 1.394
x1 = 0.1489 | 1.619 | 1.424 | 1.286
x1 = 0.2002 | 1.476 | 1.306 | 1.184
x1 = 0.2511 | 1.35 | 1.203 | 1.094
x1 = 0.2999 | 1.242 | 1.113 | 1.017
x1 = 0.3486 | 1.146 | 1.031 | 0.947
x1 = 0.4 | 1.057 | 0.955 | 0.879
x1 = 0.4511 | 0.977 | 0.887 | 0.82
x1 = 0.5 | 0.908 | 0.829 | 0.769
x1 = 0.5502 | 0.845 | 0.775 | 0.721
x1 = 0.5999 | 0.791 | 0.729 | 0.679
x1 = 0.652 | 0.74 | 0.685 | 0.64
x1 = 0.6999 | 0.699 | 0.649 | 0.608
x1 = 0.7499 | 0.66 | 0.616 | 0.578
x1 = 0.8 | 0.626 | 0.586 | 0.552
x1 = 0.8505 | 0.597 | 0.56 | 0.528
x1 = 0.9 | 0.571 | 0.538 | 0.508
x1 = 0.9499 | 0.549 | 0.519 | 0.492
x1 = 1 | 0.532 | 0.504 | 0.478

CCOC(C)(C)C [2-ethoxy-2-methylpropane] + CCOCCOCCOCCO
[1], x1 = 1
Conditions | viscosity [mPa·s]
293.15 K | 0.532
298.15 K | 0.504
303.15 K | 0.478

CCOCCO [2-ethoxyethan-1-ol]
[2]
Conditions | viscosity [mPa·s]
293.15 K | 2.142
298.15 K | 1.848
303.15 K | 1.646

CCOC(C)(C)C [2-ethoxy-2-methylpropane] + CCOCCOCCO
[1], x1 = 1
Conditions | viscosity [mPa·s]
293.15 K | 0.532
298.15 K | 0.504
303.15 K | 0.478

CCOCCOCCO [3,6-dioxa-1-octanol] + CCOC(C)(C)C
viscosity [mPa·s], [1]
Conditions | 293.15 K | 298.15 K | 303.15 K
x2 = 0 | 4.464 | 3.976 | 3.531
x2 = 0.05 | 3.992 | 3.574 | 3.192
x2 = 0.1 | 3.505 | 3.156 | 2.836
x2 = 0.1501 | 3.037 | 2.746 | 2.49
x2 = 0.2 | 2.637 | 2.398 | 2.183
x2 = 0.2498 | 2.289 | 2.093 | 1.912
x2 = 0.2999 | 1.991 | 1.828 | 1.683
x2 = 0.3497 | 1.744 | 1.605 | 1.48
x2 = 0.3999 | 1.526 | 1.413 | 1.312
x2 = 0.4502 | 1.343 | 1.245 | 1.16
x2 = 0.5002 | 1.184 | 1.103 | 1.03
x2 = 0.55 | 1.049 | 0.979 | 0.918
x2 = 0.5997 | 0.932 | 0.872 | 0.82
x2 = 0.6504 | 0.832 | 0.78 | 0.736
x2 = 0.7003 | 0.749 | 0.704 | 0.667
x2 = 0.7503 | 0.682 | 0.643 | 0.611
x2 = 0.7998 | 0.63 | 0.596 | 0.568
x2 = 0.8498 | 0.591 | 0.562 | 0.536
x2 = 0.9 | 0.563 | 0.536 | 0.512
x2 = 0.95 | 0.545 | 0.519 | 0.495

CCOCCOCCO [3,6-dioxa-1-octanol]
[2]
Conditions | viscosity [mPa·s]
293.15 K | 4.464
298.15 K | 3.976
303.15 K | 3.531

CCOCCO [2-ethoxyethan-1-ol] + CCOC(C)(C)C
[1], x2 = 0
Conditions | viscosity [mPa·s]
293.15 K | 2.142
298.15 K | 1.848
303.15 K | 1.646

CCOCCOCCOCCO [2-(2-(2-ethoxyethoxy)ethoxy)ethanol]
[2]
Conditions | viscosity [mPa·s]
293.15 K | 8.087
298.15 K | 7.049
303.15 K | 6.421

CCOC(C)(C)C [2-ethoxy-2-methylpropane]
[2]
Conditions | viscosity [mPa·s]
293.15 K | 0.532
298.15 K | 0.504
303.15 K | 0.478

CCOCCOCCOCCO [2-(2-(2-ethoxyethoxy)ethoxy)ethanol] + CCOC(C)(C)C
viscosity [mPa·s], [1]
Conditions | 293.15 K | 298.15 K | 303.15 K
x2 = 0 | 8.087 | 7.049 | 6.421
x2 = 0.0501 | 6.804 | 5.991 | 5.485
x2 = 0.0996 | 5.742 | 5.091 | 4.685
x2 = 0.1502 | 4.816 | 4.304 | 3.982
x2 = 0.1999 | 4.042 | 3.643 | 3.389
x2 = 0.2502 | 3.391 | 3.076 | 2.874
x2 = 0.3005 | 2.841 | 2.597 | 2.437
x2 = 0.3506 | 2.383 | 2.195 | 2.067
x2 = 0.4 | 2.008 | 1.863 | 1.759
x2 = 0.4502 | 1.692 | 1.582 | 1.495
x2 = 0.5 | 1.435 | 1.351 | 1.278
x2 = 0.55 | 1.225 | 1.16 | 1.096
x2 = 0.5955 | 1.067 | 1.013 | 0.959
x2 = 0.6498 | 0.915 | 0.873 | 0.824
x2 = 0.7 | 0.804 | 0.77 | 0.727
x2 = 0.7502 | 0.714 | 0.689 | 0.654
x2 = 0.7982 | 0.647 | 0.628 | 0.598
x2 = 0.8491 | 0.593 | 0.581 | 0.555
x2 = 0.9 | 0.555 | 0.549 | 0.524
x2 = 0.95 | 0.533 | 0.528 | 0.502
